1 compound from paper PMC12320299 (Chemical Science, 2025) can be followed below.

Broadly, the IC50 is the concentration at which inhibition is half-maximal.

Series [1] concerns HCT116 TP53-knockout (TP53KO) cell line. The series is described as follows: MTT viability assay, HCT116 TP53-knockout, 96 h. Type of series: cell-based, human. On the procedure: removed and 100 µL DMSO was added to dissolve the formazan crystals. Photometric quantification was performed at 570 nm with a Multiskan Go 1510 photometer (Thermo Fisher […]
The absorbances were blank corrected and converted to relative proliferation. The IC50 values (concentration of 50% growth inhibition) were obtained using a sigmoidal fit of the experimental data and calculated as the mean ± standard deviation of at least three independent experiments, each in at least triplicates.
HCT116, HCT116 p53KO (each 2.000 cells/well) and CT-26 cells (500 cells/well) were seeded in 100 µL/well into flat-bottom 96-well plates (Starlab) and incubated at 37 °C for 96 h in a humidified incubator (Binder CB210) at 5% CO2. The test compound was dissolved in DMSO, serially diluted in the appropriate cell culture medium (see section above) to final DMSO concentrations of ≤0.5% v/v and 100 µL aliquots added to wells in triplicates. […] Optical densities were measured with a microplate reader (ELx808, Biotek) at a wavelength of 550 nm (and a reference wavelength of 690 nm) and blank corrected. […]
(each 3.000 cells/well) were seeded in 100 µL/well into flat-bottom 96-well plates (Starlab) and incubated at 37 °C for 24 h in a humidified incubator (Binder CB210) at 5% CO2. […] After 24 h of treatment, plates were measured by MTT assay as described above. […]
In general terms: Formazan colour is commonly taken as a measure of viable cells.

The nature of series [2]: Histological evaluation of liver (H&E). The settings on record: 10 mg kg^−1 i.p., five consecutive days. The format is in vivo, BALB/c mice. On the procedure: Liver tissue for histological assessment was fixed with formaldehyde and then paraffin-embedded. Haematoxylin and eosin (H&E) was used to stain tissue slices.
Animals. All experiments were carried out with male Balb/c mice according to the regulation of the Ethics Committee for the Care and Use of Laboratory Animals at the Medical University Vienna (BMWF-2022-0.770.291), the guidelines from the Austrian Animal Science Association and the Federation of European Laboratory Animal Science Associations (FELASA). The animals were kept in a pathogen-free conditions, controlled environment with 12 h light–dark cycle with ad libitum access to food and water. Every procedure was done in a laminar airflow […]
Treatment. CT-26 cells ([…] in 50 μL serum-free medium) were injected subcutaneously (s.c.) into the right flank of ten– to eleven-week-old male Balb/c mice. Three days after cell injection, all compounds (dissolved in 10% DMSO in water) were administered […]
1b/2b. Regarding anticancer activity experiments, mice were treated on 5 consecutive days over 2 weeks. Four hours after the last treatment 1a-treated mice were sacrificed and analysed for ruthenium levels in tissue via ICP-MS measurements. In case of the proteomic profiling […]
in water for 5 consecutive days. On the last day, 2 h after the last treatment, mice were euthanized, and blood was collected in an EDTA tube via heart punctation. […]

`CCC1=C2[O][Ru][O]C2(n2cccn2)c2ccccc2C1=O.Cc1ccc(C(C)C)cc1` (centres unmarked) [Compound 1a, [(3-ethyl-4-oxo-(pyrazolyl)-dihydronaphthalene)(cymene)ruthenium(II)]]: the IC50 in series [1] was 260 ± 10 nM. For the same compound, in series [2], the “liver histology (H&E)” value is “largely healthy physiology”.
